Where only a bound is given, the exact number is not on record here.

This experiment deals with MOLM-13 cells. Description: MOLM-13 cell viability assay (CellTiter-Glo). The following applies: Homo sapiens, MOLM-13, 72 h, 3 days, concentration of 1 μM, read-out: Antiproliferative Activity (inhibition, MOLM-13 cell viability). The format is cell-based. As for the experimental part:
MOLM-13 cells were cultured in RPMI 1640 media supplemented with 10% fetal bovine serum, streptomycin, and penicillin. The cells were plated in white walled 96-well plates at 2,500 cells/well. The cells were incubated in DMSO (control) or an indicated compound for 3 days at 37° C. and 5% CO2. Following the incubation period, 100 μL of CELLTITER-GLO® (CTG) reagent was added to each well. Following a 10 minutes incubation with shaking, luminescence was measured using an ENVISION® Multimode plate reader.
Consider `O=C1CCC(N2Cc3c(CNC(=O)C(=O)c4ccc5ccccc5c4)cccc3C2=O)C(=O)N1` (centres unmarked) [Compound I-96, N-((2-(2,6-dioxopiperidin-3-yl)-1-oxoisoindolin-4-yl)methyl)-2-(naphthalen-2-yl)-2-oxoacetamide], for which the cytotoxicity at 1 µM is < 25%.

Regarding `Cc1ccc(N(C)C(=O)N(C)Cc2scc3c2CN(C2CCC(=O)NC2=O)C3=O)cc1Cl` (centres unmarked) [II-20, 1-(3-chloro-4-methylphenyl)-3-((5-(2,6-dioxopiperidin-3-yl)-4-oxo-5,6-dihydro-4H-thieno[3,4-c]pyrrol-1-yl)methyl)-1,3-dimethylurea], the cytotoxicity at 1 µM is < 25%.

Take `Cc1ccc(C(F)(F)C(=O)NCc2scc3c2CN([C@H]2CCCC(=O)NC2=O)C3=O)cc1Cl` [II-29, (S)-2-(3-chloro-4-methylphenyl)-N-((5-(2,7-dioxoazepan-3-yl)-4-oxo-5,6-dihydro-4H-thieno[3,4-c]pyrrol-1-yl)methyl)-2,2-difluoroacetamide]: the cytotoxicity at 1 µM was < 25%.

Consider `CC(C)(C)c1ccc(C(=O)C(=O)NCc2ccc3c(c2)C(=O)N(C2CCC(=O)NC2=O)C3=O)cc1` (centres unmarked) [Compound I-32, 2-(4-(tert-butyl)phenyl)-N-((2-(2,6-dioxopiperidin-3-yl)-1,3-dioxoisoindolin-5-yl)methyl)-2-oxoacetamide], for which the cytotoxicity at 1 µM was > 80%.

With `O=C1CCC(N2Cc3c(csc3CNC(=O)C(=O)c3ccc(C4CC4)cc3)C2=O)C(=O)N1` (centres unmarked) [Compound I-12, 2-(4-cyclopropylphenyl)-N-((5-(2,6-dioxopiperidin-3-yl)-4-oxo-5,6-dihydro-4H-thieno[3,4-c]pyrrol-1-yl)methyl)-2-oxoacetamide], the cytotoxicity at 1 µM is < 25%.

Regarding `Cc1ccc(C(=O)C(=O)NCc2scc3c2CN(C2CCC(=O)NC2=O)C3=O)cc1` (centres unmarked) [Compound I-17, 2-(4-methylphenyl)-N-((5-(2,6-dioxopiperidin-3-yl)-4-oxo-5,6-dihydro-4H-thieno[3,4-c]pyrrol-1-yl)methyl)-2-oxoacetamide], the cytotoxicity at 1 µM was < 25%.

In the case of `Cc1ccc(CCCC(=O)NCc2scc3c2CN(C2CCC(=O)NC2=O)C3=O)cc1Cl` (centres unmarked) [II-41, 4-(3-chloro-4-methylphenyl)-N-((5-(2,6-dioxopiperidin-3-yl)-4-oxo-5,6-dihydro-4H-thieno[3,4-c]pyrrol-1-yl)methyl)butanamide], the cytotoxicity at 1 µM fell in the range of 25 to 50%.

With `O=C1CCC(N2Cc3c(csc3CNC(=O)C(=O)c3cccs3)C2=O)C(=O)N1` (centres unmarked) [Compound I-9, N-((5-(2,6-dioxopiperidin-3-yl)-4-oxo-5,6-dihydro-4H-thieno[3,4-c]pyrrol-1-yl)methyl)-2-(thiophen-2-yl)-2-oxoacetamide], the cytotoxicity at 1 µM is < 25%.

As to `CC(C)(C)c1ccc(C(=O)C(=O)NCc2c(F)c(F)cc3c2CN(C2CCC(=O)NC2=O)C3=O)cc1` (centres unmarked) [Compound I-51, 2-(4-(tert-butyl)phenyl)-N-((2-(2,6-dioxopiperidin-3-yl)-5,6-difluoro-1-oxoisoindolin-4-yl)methyl)-2-oxoacetamide], the cytotoxicity at 1 µM was < 25%.

On to `CC(C)(C)C1CCC(C(=O)C(=O)NCc2ccc3c(c2)CN(C2CCC(=O)NC2=O)C3=O)CC1` (centres unmarked) [Compound I-68, 2-(4-(tert-butyl)cyclohexyl)-N-((2-(2,6-dioxopiperidin-3-yl)-1-oxoisoindolin-5-yl)methyl)-2-oxoacetamide], for which the cytotoxicity at 1 µM was < 25%.

For the compound `Cc1ccc(CC(=O)NCc2csc3c2CN(C2CCC(=O)NC2=O)C3=O)cc1Cl` (centres unmarked) [II-57, 2-(3-chloro-4-methylphenyl)-N-((5-(2,6-dioxopiperidin-3-yl)-6-oxo-5,6-dihydro-4H-thieno[2,3-c]pyrrol-3-yl)methyl)acetamide], the cytotoxicity at 1 µM lay within 50 to 80%.

For the compound `CC(C)[C@@H](N)C(=O)OCN1C(=O)CCC(N2Cc3c(CNC(=O)C(=O)c4ccc(C(C)(C)C)cc4)cccc3C2=O)C1=O` (stereo partly drawn) [Compound I-49, (2R)-(3-(4-((2-(4-(tert-butyl)phenyl)-2-oxoacetamido)methyl)-1-oxoisoindolin-2-yl)-2,6-dioxopiperidin-1-yl)methyl 2-amino-3-methylbutanoate], the cytotoxicity at 1 µM lay within 50 to 80%.

On to `CC(C)(C)c1ccc(C(=O)C(=O)NCc2cccc3c2C(=O)N(C2CCC(=O)NC2=O)C3)cc1` (centres unmarked) [Compound I-38, 2-(4-(tert-butyl)phenyl)-N-((2-(2,6-dioxopiperidin-3-yl)-3-oxoisoindolin-4-yl)methyl)-2-oxoacetamide], for which the cytotoxicity at 1 µM was < 25%.

Regarding `O=C(Cc1ccc(F)cc1)NCc1scc2c1CN(C1CCC(=O)NC1=O)C2=O` (centres unmarked) [II-25, N-((5-(2,6-dioxopiperidin-3-yl)-4-oxo-5,6-dihydro-4H-thieno[3,4-c]pyrrol-1-yl)methyl)-2-(4-fluorophenyl)acetamide], the cytotoxicity at 1 µM is < 25%.

With `Cc1ccc(NCCCCCNCc2scc3c2CN(C2CCC(=O)NC2=O)C3=O)cc1Cl` (centres unmarked) [II-64, 3-(1-(((5-((3-chloro-4-methylphenyl)amino)pentyl)amino)methyl)-4-oxo-4H-thieno[3,4-c]pyrrol-5(6H)-yl)piperidine-2,6-dione], the cytotoxicity at 1 µM is < 25%.

On to `CC(C)(C)c1ccc(S(=O)(=O)NCc2scc3c2CN(C2CCC(=O)NC2=O)C3=O)cc1` (centres unmarked) [II-124, 4-(tert-butyl)-N-((5-(2,6-dioxopiperidin-3-yl)-4-oxo-5,6-dihydro-4H-thieno[3,4-c]pyrrol-1-yl)methyl)benzenesulfonamide], for which the cytotoxicity at 1 µM is < 25%.

For `Cc1ccc(NC(=O)NCc2cc3c(s2)C(=O)N([C@H]2CCC(=O)NC2=O)C3)cc1Cl` [II-90, (S)-1-(3-chloro-4-methylphenyl)-3-((5-(2,6-dioxopiperidin-3-yl)-6-oxo-5,6-dihydro-4H-thieno[2,3-c]pyrrol-2-yl)methyl)urea], the cytotoxicity at 1 µM was > 80%.

As to `Cc1ccc(NC(=O)NCc2cc3c(s2)C(=O)N(C2CCC(=O)N(COC(=O)[C@H](N)C(C)C)C2=O)C3)cc1Cl` (stereo partly drawn) [II-82, (3-(2-((3-(3-chloro-4-methylphenyl)ureido)methyl)-6-oxo-4,6-dihydro-5H-thieno[2,3-c]pyrrol-5-yl)-2,6-dioxopiperidin-1-yl)methyl D-valinate], the cytotoxicity at 1 µM is > 80%.

For the compound `O=C1CCC(N2Cc3c(csc3CNC(=O)C(=O)c3ccc(-c4ccccc4)cc3)C2=O)C(=O)N1` (centres unmarked) [Compound I-21, 2-([1,1′-biphenyl]-4-yl)-N-((5-(2,6-dioxopiperidin-3-yl)-4-oxo-5,6-dihydro-4H-thieno[3,4-c]pyrrol-1-yl)methyl)-2-oxoacetamide], the cytotoxicity at 1 µM lay within 25 to 50%.

Consider `COc1cc(NC(=O)NCc2cc3c(s2)C(=O)N(C2CCC(=O)NC2=O)C3)ccc1C` (centres unmarked) [II-58, 1-((5-(2,6-dioxopiperidin-3-yl)-6-oxo-5,6-dihydro-4H-thieno[2,3-c]pyrrol-2-yl)methyl)-3-(3-methoxy-4-methylphenyl)urea], for which the cytotoxicity at 1 µM was > 80%.

On to `O=C1CCC(N2Cc3c(csc3CNC(=O)C(=O)c3ccc(O)cc3)C2=O)C(=O)N1` (centres unmarked) [Compound I-16, 2-(4-hydroxyphenyl)-N-((5-(2,6-dioxopiperidin-3-yl)-4-oxo-5,6-dihydro-4H-thieno[3,4-c]pyrrol-1-yl)methyl)-2-oxoacetamide], for which the cytotoxicity at 1 µM is < 25%.

For `O=C1CCC(N2Cc3cc(CNC(=O)C(=O)c4ccccc4)ccc3C2=O)C(=O)N1` (centres unmarked) [Compound I-83, N-((2-(2,6-dioxopiperidin-3-yl)-1-oxoisoindolin-5-yl)methyl)-2-oxo-2-phenylacetamide], the cytotoxicity at 1 µM was > 80%.

In the case of `CC(C)(C)c1ccc(C(O)(C(=O)NCc2scc3c2CN(C2CCC(=O)NC2=O)C3=O)C(F)(F)F)cc1` (centres unmarked) [II-133, 2-(4-(tert-butyl)phenyl)-N-((5-(2,6-dioxopiperidin-3-yl)-4-oxo-5,6-dihydro-4H-thieno[3,4-c]pyrrol-1-yl)methyl)-3,3,3-trifluoro-2-hydroxypropanamide], the cytotoxicity at 1 µM is < 25%.

As for `C=C(C(=O)NCc1scc2c1CN(C1CCC(=O)NC1=O)C2=O)c1ccc(C)c(Cl)c1` (centres unmarked) [II-67, 2-(3-chloro-4-methylphenyl)-N-((5-(2,6-dioxopiperidin-3-yl)-4-oxo-5,6-dihydro-4H-thieno[3,4-c]pyrrol-1-yl)methyl)propenamide], the cytotoxicity at 1 µM was < 25%.

Regarding `CN(C)c1cccc(NC(=O)NCc2cc3c(s2)C(=O)N(C2CCC(=O)NC2=O)C3)c1` (centres unmarked) [II-48, 1-(3-(dimethylamino)phenyl)-3-((5-(2,6-dioxopiperidin-3-yl)-6-oxo-5,6-dihydro-4H-thieno[2,3-c]pyrrol-2-yl)methyl)urea], the cytotoxicity at 1 µM is > 80%.

On to `Cc1ccc(NC(=O)NCc2cc3c(s2)C(=O)N(C2CCC(=O)N(COC(=O)[C@H](N)C(C)C)C2=O)C3)cc1N(C)C` (stereo partly drawn) [II-81, (3-(2-((3-(3-(dimethylamino)-4-methylphenyl)ureido)methyl)-6-oxo-4,6-dihydro-5H-thieno[2,3-c]pyrrol-5-yl)-2,6-dioxopiperidin-1-yl)methyl D-valinate], for which the cytotoxicity at 1 µM was > 80%.

Take `O=C(CCCc1ccc(N2CCOCC2)cc1)NCc1scc2c1CN(C1CCC(=O)NC1=O)C2=O` (centres unmarked) [II-146, N-((5-(2,6-dioxopiperidin-3-yl)-4-oxo-5,6-dihydro-4H-thieno[3,4-c]pyrrol-1-yl)methyl)-4-(4-morpholinophenyl)butanamide]: the cytotoxicity at 1 µM is < 25%.

`Cc1ccc(C(=O)C(=O)NCc2scc3c2CN(C2CCC(=O)NC2=O)C3=O)cc1N(C)C` (centres unmarked) [Compound I-44, 2-(3-(dimethylamino)-4-methylphenyl)-N-((5-(2,6-dioxopiperidin-3-yl)-4-oxo-5,6-dihydro-4H-thieno[3,4-c]pyrrol-1-yl)methyl)-2-oxoacetamide]: the cytotoxicity at 1 µM is > 80%.

In the case of `CCN(CC)c1cc(NC(=O)NCc2cc3c(s2)C(=O)N(C2CCC(=O)NC2=O)C3)ccc1C` (centres unmarked) [II-47, 1-(3-(diethylamino)-4-methylphenyl)-3-((5-(2,6-dioxopiperidin-3-yl)-6-oxo-5,6-dihydro-4H-thieno[2,3-c]pyrrol-2-yl)methyl)urea], the cytotoxicity at 1 µM is > 80%.
